According to patent US20220324912A1, “THERAPEUTIC PEPTIDES” (COHBAR, INC., priority 2019, published 2022):
Non-standard residues stand in square brackets, D forms with d. No end group written: not given here.

Columns and labels:
[1] = tested on: Caspase 3/7 in C2C12 cells; experiment: Caspase 3/7 Activity in C2C12 Cells; format: cell-based, mouse; details: peptides 10 μM, 24 hours, relative to 0.1% DMSO control
Protocol: The effect of the peptides on cell death/survival can be assessed using a caspase-3/7 assay in cultured cells such as mouse myoblast cells. Peptides were initially prepared as 10 mM stock in DMSO, diluted to 1 mM in H2O, and used at a final concentration of 10 μM (0.1% DMSO). […] Staurosporine (Abcam, Cambridge, Mass.) was dissolved at 10 mM in DMSO as a stock solution. Caspase-Glo 3/7 Assay Reagent was purchased from Promega (Madison, Wis.). C2C12 cell line was purchased from American Type Culture Collection (Manassas, Va.). C2C12 cells were grown in DMEM supplemented with 20% FBS with 100 IU/ml penicillin and 100 μg/ml streptomycin. Cultures were maintained at 37° C. in a humidified atmosphere of 5% CO2/95% air. C2C12 cells were seeded at 4,000 cells per well on 96-well plates. The next day cells were incubated with test peptides at 10 μM or staurosporine at concentrations between 100 nM and 5 nM using a final concentration of 0.1% DMSO and maintained at 37° C. in a humidified atmosphere of 5% CO2/95% air for 24 hours. Caspase 3/7 activity was determined using a Caspase-Glo 3/7 Assay kit according to the manufacturer's instructions. Luminescence for each sample well on the plate was measured using a Cytation 3 plate reader (BioTek, Winooski, Vt.). Activity was calculated relative to 0.1% DMSO control.

3T3-L1 mouse adipocytes = experiment: Free Fatty Acid Levels in 3T3-L1 Mouse Adipocytes (Example 12, 10 μM); format: cell-based; details: peptides 10 μM, 20-22 hours then 3 hours with isoproterenol 1 nM, 3T3-L1 mouse adipocytes
DIO mice = experiment: Metabolic parameters in DIO mice, twice daily intraperitoneal, 10 days (Example 16); format: in vivo, mouse; details: 5 mg/kg, male DIO mice
Protocol: Male C57BL/6 mice were maintained on a high fat diet for 18 weeks to develop diet induced obesity. Animals were randomized to treatment groups based on blood glucose levels and body weight. The peptides of the invention were administered to groups of male DIO mice twice daily by intraperitoneal injection at a dose of 5 mg/kg/dose for 10 days (N=8 animals per treatment group). An additional group of male DIO mice (n=8) received vehicle (water) alone administered twice daily by intraperitoneal injection. Body weight, blood glucose levels and food intake were monitored. Body mass distribution (fat vs lean) was determined by quantitative whole body NMR prior to dosing and at the end of dosing.

C2C12 cells [2] = experiment: ATP Levels in Cultured C2C12 Cells (CellTiter-Glo); format: cell-based, mouse; details: peptides 10 μM, 3 days with readdition every 24 hours, relative to 0.1% DMSO control
Protocol: The effect of the peptides on cellular metabolism can be assessed using an assay of ATP levels in cultured cells such as mouse myoblast cells. Peptides were initially prepared as 10 mM stock in DMSO, diluted to 1 mM in H2O, and used at a final concentration of 10 μM (0.1% DMSO). […] Lovastatin was prepared as 10 mM stock in 70% Ethanol and used at final concentration of 10 µM containing 0.1% DMSO. CellTiter-Glo® Assay kit was purchased from Promega (Madison, Wis.). […] C2C12 cells were grown in DMEM medium supplemented with 20% FBS with 100 IU/ml penicillin and 100 μg/ml streptomycin. […] C2C12 cells were seeded at 800 cells per well on 96-well plates. […] ATP levels were determined using a CellTiter-Glo Assay kit according to the manufacturer's instructions. Luminescence for each sample well on the plate was measured using a Cytation 3 plate reader (BioTek, Winooski, Vt.). Activity was calculated relative to 0.1% DMSO treated control. The relative standard deviation of the result for the 0.1% DMSO treated control was <5%. […] ATP levels for treatment with lovastatin (10 μM) were <50% of the 0.1% DMSO treated control value.

C2C12 cells [3] = experiment: Cellular ROS Levels Induced by TBHP in C2C12 Cells (DCFDA); format: cell-based, mouse; details: peptides 10 μM, 18-20 hours, then TBHP 100 μM 1 hour, relative to TBHP control
C2C12 cells [4] = experiment: Cell Proliferation in C2C12 Cells (Cyquant DNA dye); format: cell-based, mouse; details: peptides 10 μM, 72 hours with readdition every 24 hours, relative to 0.1% DMSO control

Substance | Caspase 3/7 activity, Percent of Control Activity [1] [%] | Free fatty acid levels, Percent of Isoproterenol Control Activity (3T3-L1 mouse adipocytes) [%] | Difference from Vehicle Control: Decrease from Baseline in Blood Glucose (DIO mice) [mg/dL] | Difference from Vehicle Control: Decrease from Baseline in Body Weight (DIO mice) [%] | Difference from Vehicle Control: Decrease from Baseline in Fat Mass (DIO mice) [g] | ATP levels, Percent of Control Activity (C2C12 cells [2]) [%] | Cellular ROS levels induced by TBHP, Percent of Control (C2C12 cells [3]) [%] | Cell proliferation, Percent of Control (C2C12 cells [4]) [%]
11 (RLPGSAILTNPVL[dA]WVWV) [compound 11] | 98.7 | 47.2 | 4.76 | −1.81 | -1.09 | 100.7 | 103.5 | 98.1
18 (S[dA]ILTNPVLGWVWV) [compound 18] | 97.0 | 95.9 | – | – | – | 103.2 | 100.7 | 101.7
